Experimental data reported in patent US8106046B2, “Cyclopentathiophene modulators of the glucocorticoid receptor, AP-1, and/or NF-κB activity and use thereof” (Bristol-Myers Squibb Company, priority 2008, dated 2012).
Like-named read-outs stand apart in the source and are kept apart here.

Columns and labels:
[1] = molecular target: T1, human glucocorticoid receptor (Homo sapiens, UniProt P04150); assay: Glucocorticoid Receptor Binding Assay (I), fluorescence polarization competitor assay; details: purified human recombinant full-length GR, Fluormone GS Red
T1 construct: purified human recombinant full-length glucocorticoid receptor (2 nM); purchased Invitrogen Part #2893
T1 sequence (P04150 1-777): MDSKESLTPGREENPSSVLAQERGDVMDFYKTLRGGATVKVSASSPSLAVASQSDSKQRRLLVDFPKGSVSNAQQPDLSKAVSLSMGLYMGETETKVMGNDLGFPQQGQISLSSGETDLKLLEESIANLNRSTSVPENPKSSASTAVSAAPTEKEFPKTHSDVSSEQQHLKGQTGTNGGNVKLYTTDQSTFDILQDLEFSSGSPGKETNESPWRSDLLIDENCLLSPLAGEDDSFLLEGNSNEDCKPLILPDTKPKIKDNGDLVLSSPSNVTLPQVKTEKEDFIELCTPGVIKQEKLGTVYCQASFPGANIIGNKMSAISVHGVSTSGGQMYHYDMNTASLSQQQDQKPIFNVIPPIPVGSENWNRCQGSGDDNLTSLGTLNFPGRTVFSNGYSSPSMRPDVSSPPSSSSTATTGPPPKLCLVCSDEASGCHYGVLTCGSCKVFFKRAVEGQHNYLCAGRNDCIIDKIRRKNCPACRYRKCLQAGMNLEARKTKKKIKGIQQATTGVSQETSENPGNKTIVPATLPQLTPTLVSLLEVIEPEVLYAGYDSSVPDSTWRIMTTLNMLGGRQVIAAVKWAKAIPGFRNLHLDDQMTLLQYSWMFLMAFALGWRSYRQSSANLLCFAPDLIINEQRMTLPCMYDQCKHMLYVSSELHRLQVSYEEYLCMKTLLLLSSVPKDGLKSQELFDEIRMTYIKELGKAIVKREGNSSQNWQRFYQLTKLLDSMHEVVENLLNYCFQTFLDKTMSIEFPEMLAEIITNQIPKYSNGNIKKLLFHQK
Experimental: In order to assess the affinity of test compounds for the human glucocorticoid receptor, a commercially available kit was used (Glucocorticoid Receptor Competitor Assay Kit, Invitrogen Part #2893). Briefly, purified human recombinant full-length glucocorticoid receptor (2 nM) was mixed with fluorescently labeled glucocorticoid (1 nM Fluormone GS Red) in the presence or absence of test compound. After two hour incubation at room temperature in the dark, the fluorescence polarization (FP) of the samples was measured. The FP of a mixture of receptor, fluorescent probe (i.e., Fluormone GS Red) and 5 μM dexamethasone represented background fluorescence or 100% inhibition, whereas, the FP of the mixture without dexamethasone (but in the presence of vehicle) was taken to be 100% binding. […] Test compounds were analyzed in the concentration range from 8.5E-05 μM to 5 μM.

[2] = tested on: AP-1 induced transcriptional activity; assay: Cellular Transrepressional Assay (AP-1 luciferase reporter in A549 cells, PMA activated); assay type: cell-based; details: 10 ng/ml PMA, 7 hours; for AP-1 Max % inh (Cellular Transrepression Assay): maximum inhibition; for EC50: read-out: AP-1 EC50, nM (Cellular Transrepression Assay)
Experimental: To measure the ability of test molecules to inhibit AP-1 induced transcriptional activity we utilized an A549 cell which was stably transfected with a plasmid containing 7×AP-1 DNA binding sites (pAP-1-Luc plasmid, Stratagene Co. La Jolla, Calif.) followed by the gene for luciferase. Cells were activated with 10 ng/ml of phorbol myristic acid (PMA) plus or minus test molecules for 7 hours. After 7 hours a luciferase reagent was added to measure luciferase enzymatic activity in the cell. After a 10 minute incubation of luciferase reagent with cells, luminescence was measured in a TopCount luminescence counter. Repression of AP-1 activity was calculated as the percentage decrease in the signal induced by PMA alone. Test molecules were analyzed in the concentration range from 0.1 nM to 40 μM. EC50s were determined by using standard curve fitting methods such as Excel fit (Microsoft Co.). An EC50 is the test molecule concentration at which there is a 50% repression of the maximal inhibition of transcription, i.e., a 50% reduction of AP-1 activity.

| Ki [1] | EC50 ([2]; Homo sapiens) | EC50 [2] | Structure (SMILES) | AP-1 Max % inh (Cellular Transrepression Assay) [2] |
| --- | --- | --- | --- | --- |
| 5.3 nM | – | – | CC1(C(=O)Nc2nncs2)Cc2sc(Br)cc2C1c1ccccc1 (racemic) [Example 1, (+/−)-2-Bromo-5-methyl-4-phenyl-N-(1,3,4-thiadiazol-2-yl)-5,6-dihydro-4H-cyclopenta[b]thiophene-5-carboxamide] | – |
| – | 35 nM | – | CCN(C)C(=O)c1ccc(-c2cc3c(s2)C[C@](C)(C(=O)Nc2nncs2)[C@@H]3c2ccccc2)cc1 (racemic) [Example 4] | 52.82% |
| – | – | 53.1 nM | CN(C)C(=O)c1ccc(-c2cc3c(s2)C[C@](C)(C(=O)Nc2nncs2)[C@@H]3c2ccccc2)cc1Cl (racemic) [Example 6] | 29.32% |
| – | – | 22.5 nM | C[C@]1(C(=O)Nc2nncs2)Cc2sc(-c3ccc(C(=O)N4CCOCC4)cc3)cc2[C@H]1c1ccccc1 (racemic) [Example 7] | 44.81% |
| – | – | 42.1 nM | C[C@]1(C(=O)Nc2nncs2)Cc2sc(-c3ccc(C(=O)N4CCCC4)cc3)cc2[C@H]1c1ccccc1 (racemic) [Example 8] | 42.74% |
| – | – | 40.2 nM | CN(C)C(=O)c1ccc(-c2cc3c(s2)C[C@](C)(C(=O)Nc2nncs2)[C@@H]3c2ccccc2)cc1F (racemic) [Example 9] | 26.03% |
| – | – | 24.2 nM | CCN(C)C(=O)c1ccc(-c2cc3c(s2)C[C@](C)(C(=O)Nc2nncs2)[C@@H]3c2ccccc2)cc1F (racemic) [Example 10] | 27.94% |
| 1.9 nM | – | – | CCN(C)C(=O)c1ccc(-c2cc3c(s2)CC(C)(C(=O)Nc2nncs2)C3c2ccccc2)cc1Cl (racemic) [Example 11] | – |
| – | – | 34.5 nM | CC(C)NC(=O)c1nnc(NC(=O)C2(C)Cc3sc(-c4ccc(C(=O)N5CCOCC5)cc4)cc3C2c2ccccc2)s1 (racemic) [Example 22] | 55.76% |
| – | – | 452 nM | Cc1nnc(NC(=O)C2(C)Cc3sc(-c4ccc(C(=O)N5CCOCC5)cc4)cc3C2c2ccccc2)s1 (racemic) [Example 23] | 29.00% |
| – | 23.1 nM | – | C[C@]1(C(=O)Nc2nncs2)Cc2sc(-c3ccc(C(=O)N4CCOCC4)cc3)cc2[C@H]1c1cccc(F)c1 (relative stereo) [Example 24, (Cis)-4-(3-fluorophenyl)-5-methyl-2-(4-(morpholine-4-carbonyl)phenyl)-N-(1,3,4-thiadiazol-2-yl)-5,6-dihydro-4H-cyclopenta[b]thiophene-5-carboxamide] | 37.80% |
| 5.34 nM | – | – | C[C@]1(C(=O)Nc2nncs2)Cc2sc(Br)cc2[C@H]1c1ccccc1 [Example 2, (4S,5S)-2-Bromo-5-methyl-4-phenyl-N-(1,3,4-thiadiazol-2-yl)-5,6-dihydro-4H-cyclopenta[b]thiophene-5-carboxamide] | – |
| 1.8 nM | – | – | C[C@@]1(C(=O)Nc2nncs2)Cc2sc(Br)cc2[C@@H]1c1ccccc1 [Example 3, (4R,5R)-2-Bromo-5-methyl-4-phenyl-N-(1,3,4-thiadiazol-2-yl)-5,6-dihydro-4H-cyclopenta[b]thiophene-5-carboxamide] | – |
| – | – | 23.9 nM | C[C@]1(C(=O)Nc2nncs2)Cc2sc(-c3ccc(C(=O)N4CCOCC4)cc3)cc2[C@H]1c1ccccc1 [Example 13] | 50.68% |
| – | – | 63.7 nM | CN(C)C(=O)c1ccc(-c2cc3c(s2)C[C@](C)(C(=O)Nc2nncs2)[C@@H]3c2ccccc2)cc1Cl [Example 14] | 42.02% |
| – | – | 18.8 nM | CCN(C)C(=O)c1ccc(-c2cc3c(s2)C[C@](C)(C(=O)Nc2nncs2)[C@@H]3c2ccccc2)cc1 [Example 15] | 53.20% |
| – | – | 290 nM | C[C@]1(C(=O)Nc2nncs2)Cc2sc(-c3ccc(C(=O)N4CCCC4)cc3)cc2[C@H]1c1ccccc1 [Example 16] | 56.78% |
| – | – | 27.3 nM | C[C@@]1(C(=O)Nc2nncs2)Cc2sc(-c3ccc(C(=O)N4CCOCC4)cc3)cc2[C@@H]1c1ccccc1 [Example 18] | 29.81% |
| – | 22.8 nM | – | C[C@]1(C(=O)Nc2nnc(C(=O)NC3CC3)s2)Cc2sc(-c3ccc(C(=O)N4CCOCC4)cc3)cc2[C@H]1c1ccccc1 [Example 21] | 60.04% |

| Structure (SMILES) | Ki [1] | EC50 ([2]; Homo sapiens) | EC50 [2] | AP-1 Max % inh (Cellular Transrepression Assay) [2] |
| --- | --- | --- | --- | --- |
| CN(C)C(=O)c1ccc(-c2cc3c(s2)C[C@](C)(C(=O)Nc2nncs2)[C@@H]3c2ccccc2)cc1 (racemic) [Example 5] | – | – | 14 nM | 43.98% |
| CN(C)C(=O)c1ccc(-c2cc3c(s2)C[C@](C)(C(=O)Nc2nncs2)[C@@H]3c2ccccc2)cc1 [Example 12] | – | – | 29.1 nM | 43.11% |
| CN(C)C(=O)c1ccc(-c2cc3c(s2)C[C@@](C)(C(=O)Nc2nncs2)[C@H]3c2ccccc2)cc1 [Example 19] | – | – | 21.8 nM | 38.78% |
